Data as given in PubChem BioAssay AID2060907 (Molecular Pharmacology Branch, DTP, NCI, 2025).

Tested on: 388556-164-R-J1-PDC complex spheroid viability
Assay: Anticancer human tumor 388556-164-R-J1-PDC patient-derived colon adenocarcinoma cell line growth inhibition [RAS]
Settings: for IC50: curve of first compound; for viability, T/C: stronger effect = lower value
Summary of the method: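 Multi-cell-type spheroids: tumor cells plus HUVEC endothelial cells and mesenchymal stem cells. RAS-pathway inhibitors were combined with targeted agents, each dosed in half-log steps down from clinical Cmax, or from 10 microM when Cmax was unknown.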

[1] = second compound 0.00316 µM, first compound 0.0316 µM
[2] = second compound 0.00316 µM, first compound 0.1 µM
[3] = second compound 0.00316 µM, first compound 0.316 µM
[4] = second compound 0.00316 µM, first compound 1 µM
[5] = second compound 0.01 µM, first compound 0.0316 µM
[6] = second compound 0.01 µM, first compound 0.1 µM
[7] = second compound 0.01 µM, first compound 0.316 µM
[8] = second compound 0.01 µM, first compound 1 µM
[9] = second compound 0.0316 µM, first compound 0.0316 µM
[10] = second compound 0.0316 µM, first compound 0.1 µM
[11] = second compound 0.0316 µM, first compound 0.316 µM
[12] = second compound 0.0316 µM, first compound 1 µM
[13] = second compound 0.1 µM, first compound 0.0316 µM
[14] = second compound 0.1 µM, first compound 0.1 µM
[15] = second compound 0.1 µM, first compound 0.316 µM
[16] = second compound 0.1 µM, first compound 1 µM
[17] = second compound 0.316 µM, first compound 0.0316 µM
[18] = second compound 0.316 µM, first compound 0.1 µM
[19] = second compound 0.316 µM, first compound 0.316 µM
[20] = second compound 0.316 µM, first compound 1 µM
[21] = second compound 1 µM, first compound 0.0316 µM
[22] = second compound 1 µM, first compound 0.1 µM
[23] = second compound 1 µM, first compound 0.316 µM
[24] = second compound 1 µM, first compound 1 µM
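Further: spheroids exposed to compound for 7 days before readout.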
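Wherever viability, T/C is given: 100% = DMSO vehicle control luminescence.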

Molecule `NC1c2ccccc2OC12CCN(c1cnc3c(N4CCCc5ncccc54)n[nH]c3n1)CC2` (centres undefined) + C=CC(=O)N1CCN(c2nc(OCC3CCCN3C)nc3c(F)c(-c4nc(N)cc(C)c4C(F)(F)F)c(Cl)cc23)C(C)C1 has an IC50 (second compound 0.00316 µM) of 180 nM, an IC50 (second compound 0.01 µM) of 152 nM and an IC50 (second compound 0.0316 µM) of 165 nM. It also gave an IC50 (second compound 0.1 µM) of 230 nM, an IC50 (second compound 0.316 µM) of 190 nM and an IC50 (second compound 1 µM) of 240 nM. The viability, T/C [1] was 63.9%, the viability, T/C [2] was 55.6% and the viability, T/C [3] was 45.8%. The viability, T/C [4] was 39.4%, the viability, T/C (second compound 0.00316 µM, first compound 3.16 µM) was 44.6% and the viability, T/C (second compound 0.00316 µM, first compound 10 µM) was 38.8%. For the same molecule, the viability, T/C [5] was 67.4%, the viability, T/C [6] was 55.4% and the viability, T/C [7] was 39.1%. The viability, T/C [8] was 39.7%, the viability, T/C (second compound 0.01 µM, first compound 3.16 µM) was 44.2% and the viability, T/C (second compound 0.01 µM, first compound 10 µM) was 38.8%. It also gave a viability, T/C [9] of 71.1%, a viability, T/C [10] of 54.1% and a viability, T/C [11] of 44.1%. The viability, T/C [12] was 38.7%, the viability, T/C (second compound 0.0316 µM, first compound 3.16 µM) was 39.8% and the viability, T/C (second compound 0.0316 µM, first compound 10 µM) was 32.9%. For the same molecule, the viability, T/C [13] was 70%, the viability, T/C [14] was 59.5% and the viability, T/C [15] was 45.7%. For the same molecule, the viability, T/C [16] was 40.5%, the viability, T/C (second compound 0.1 µM, first compound 3.16 µM) was 40.1% and the viability, T/C (second compound 0.1 µM, first compound 10 µM) was 35.6%. It also gave a viability, T/C [17] of 69.2%, a viability, T/C [18] of 54.6% and a viability, T/C [19] of 45.3%. For the same molecule, the viability, T/C [20] was 41.8%, the viability, T/C (second compound 0.316 µM, first compound 3.16 µM) was 40.6% and the viability, T/C (second compound 0.316 µM, first compound 10 µM) was 35.5%. It also gave a viability, T/C [21] of 70.3%, a viability, T/C [22] of 58.3% and a viability, T/C [23] of 45.9%. The viability, T/C [24] was 40%, the viability, T/C (second compound 1 µM, first compound 3.16 µM) was 34.4% and the viability, T/C (second compound 1 µM, first compound 10 µM) was 28.1%.
`Nc1ccn(C2OC(CO)C(O)C2(F)F)c(=O)n1` (centres undefined) + C=CC(=O)N1CCN(c2nc(OCC3CCCN3C)nc3c(F)c(-c4nc(N)cc(C)c4C(F)(F)F)c(Cl)cc23)C(C)C1 showed an IC50 (second compound 0.00316 µM) of over 1000 nM, an IC50 (second compound 0.01 µM) of over 1000 nM and an IC50 (second compound 0.0316 µM) of over 1000 nM. It also gave an IC50 (second compound 0.1 µM) of over 1000 nM, an IC50 (second compound 0.316 µM) of over 1000 nM and an IC50 (second compound 1 µM) of over 1000 nM. For the same molecule, the viability, T/C (second compound 0.00316 µM, first compound 0.00316 µM) was 106%, the viability, T/C (second compound 0.00316 µM, first compound 0.01 µM) was 90.6% and the viability, T/C [1] was 82.7%. For the same molecule, the viability, T/C [2] was 79.4%, the viability, T/C [3] was 60.9% and the viability, T/C [4] was 75.8%. For the same molecule, the viability, T/C (second compound 0.01 µM, first compound 0.00316 µM) was 94.3%, the viability, T/C (second compound 0.01 µM, first compound 0.01 µM) was 89.6% and the viability, T/C [5] was 76.3%. It also gave a viability, T/C [6] of 79.3%, a viability, T/C [7] of 70% and a viability, T/C [8] of 68.3%. For the same molecule, the viability, T/C (second compound 0.0316 µM, first compound 0.00316 µM) was 104%, the viability, T/C (second compound 0.0316 µM, first compound 0.01 µM) was 87.1% and the viability, T/C [9] was 78.2%. For the same molecule, the viability, T/C [10] was 71.6%, the viability, T/C [11] was 76.9% and the viability, T/C [12] was 68.4%. It also gave a viability, T/C (second compound 0.1 µM, first compound 0.00316 µM) of 87.4%, a viability, T/C (second compound 0.1 µM, first compound 0.01 µM) of 85.3% and a viability, T/C [13] of 74%. For the same molecule, the viability, T/C [14] was 65.6%, the viability, T/C [15] was 73.8% and the viability, T/C [16] was 67.1%. The viability, T/C (second compound 0.316 µM, first compound 0.00316 µM) was 92.8%, the viability, T/C (second compound 0.316 µM, first compound 0.01 µM) was 95.9% and the viability, T/C [17] was 75.5%. It also gave a viability, T/C [18] of 74.8%, a viability, T/C [19] of 72.1% and a viability, T/C [20] of 67.3%. It also gave a viability, T/C (second compound 1 µM, first compound 0.00316 µM) of 97.2%, a viability, T/C (second compound 1 µM, first compound 0.01 µM) of 82.7% and a viability, T/C [21] of 80.2%. The viability, T/C [22] was 76.2%, the viability, T/C [23] was 72% and the viability, T/C [24] was 68.9%.
